Laboratory results as given in patent US8951975B2, “ECT2 peptides and vaccines including the same” (OncoTherapy Science, Inc., priority 2010, dated 2015).
“Also recorded” adds a separate entry of the source. Ends that are not written are not given here.

Tests used:
[1] = system: peptide-pulsed T2 cells; experiment: IFN-gamma ELISPOT assay on CTLs induced with peptide-pulsed DCs; type: cell-based, human; conditions: for CTL inducibility / specific CTL activity of CTLs stimulated with the peptide: summary statement; for IFN-gamma production of CTLs induced with the peptide (ELISPOT): against peptide-pulsed target cells, compared with control without peptide
Source text: Monocyte-derived dendritic cells (DCs) were used as antigen-presenting cells to induce cytotoxic T lymphocyte (CTL) responses against peptides presented on human leukocyte antigen (HLA). DCs were generated in vitro as described elsewhere (Nakahara S et al., Cancer Res 2003 Jul. 15, 63(14): 4112-8). Specifically, peripheral blood mononuclear cells (PBMCs) isolated from a normal volunteer (HLA-A*0201 positive) by Ficoll-Plaque (Pharmacia) solution were separated by adherence to a plastic tissue culture dish (Becton Dickinson) so as to enrich them as the monocyte fraction. The monocyte-enriched population was cultured in the presence of 1,000 U/ml of granulocyte-macrophage colony-stimulating factor (R&D System) and 1,000 U/ml of interleukin (IL)-4 (R&D System) in AIM-V Medium (Invitrogen) containing 2% heat-inactivated autologous serum (AS). After 7 days of culture, the cytokine-induced DCs were pulsed with 20 micro-g/ml of each of the synthesized peptides in the presence of 3 micro-g/ml of beta 2-microglobulin for 3 hrs at 37 degrees C. in AIM-V Medium. The generated cells appeared to express DC-associated molecules, such as CD80, CD83, CD86 and HLA class II, on their cell surfaces (data not shown). These peptide-pulsed DCs were then inactivated by X-irradiation (20 Gy) and mixed at a 1:20 ratio with autologous CD8+ T cells, obtained by positive selection with CD8 Positive Isolation Kit (Dynal). These cultures were set up in 48-well plates (Corning); each well contained 1.5×10^4 peptide-pulsed DCs, 3×10^5 CD8+ T cells and 10 ng/ml of IL-7 (R&D System) in 0.5 ml of AIM-V/2% AS medium. Three days later, these cultures were supplemented with IL-2 (CHIRON) to a final concentration of 20 IU/ml. On days 7 and 14, the T cells were further stimulated with the autologous peptide-pulsed DCs. The DCs were prepared each time by the same way described above. CTLs were tested against peptide-pulsed T2 cells after the 3rd round of peptide stimulation on day 21 (Tanaka H et al., Br J Cancer 2001 Jan. 5, 84(1): 94-9; Umano Y et al., Br J Cancer 2001 Apr. 20, 84(8): 1052-7; Uchida N et al., Clin Cancer Res 2004 Dec. 15, 10(24): 8577-86; Suda T et al., Cancer Sci 2006 May, 97(5): 411-9; Watanabe T et al., Cancer Sci 2005 August, 96(8): 498-506).
(§1) Specifically, peptide-pulsed T2 (1×10^4/well) was prepared as stimulator cells. Cultured cells in 48 wells were used as responder cells. IFN-gamma ELISPOT assay and IFN-gamma ELISA assay were performed under manufacture procedure.

[2] = system: peptide-pulsed T2 cells; experiment: IFN-gamma ELISA assay of CTL clones established by limiting dilution; type: cell-based, human; conditions: against target cells pulsed with peptide vs not pulsed
Procedure: The dilutions were made to have 0.3, 1, and 3 CTLs/well in 96 round-bottomed micro titer plate (Nalge Nunc International). CTLs were cultured with 1×10^4 cells/well of 2 kinds of human B-lymphoblastoid cell lines, 30 ng/ml of anti-CD3 antibody, and 125 U/ml of IL-2 in a total of 150 micro-l/well of AIM-V Medium containing 5% AS. 50 micro-1/well of IL-2 were added to the medium 10 days later so to reach a final concentration of 125 U/ml IL-2. CTL activity was tested on the 14th day, and CTL clones were expanded using the same method as described above (Uchida N et al., Clin Cancer Res 2004 Dec. 15, 10(24): 8577-86; Suda T et al., Cancer Sci 2006 May, 97(5): 411-9; Watanabe T et al., Cancer Sci 2005 August, 96(8): 498-506).
as §1

[3] = system: peptide-pulsed T2 cells; experiment: IFN-gamma ELISA assay of established CTL lines; type: cell-based, human; conditions: against target cells pulsed with the corresponding peptide vs without peptide pulse
Procedure: CTLs were expanded in culture using the method similar to the one described by Riddell et al. (Walter E A et al., N Engl J Med 1995 Oct. 19, 333(16): 1038-44; Riddell S R et al., Nat Med 1996 February, 2(2): 216-23). A total of 5×10^4 CTLs were suspended in 25 ml of AIM-V/5% AS medium with 2 kinds of human B-lymphoblastoid cell lines, inactivated by Mitomycin C, in the presence of 40 ng/ml of anti-CD3 monoclonal antibody (Pharmingen). One day after initiating the cultures, 120 IU/ml of IL-2 were added to the cultures. The cultures were fed with fresh AIM-V/5% AS medium containing 30 IU/ml of IL-2 on days 5, 8 and 11 (Tanaka H et al., Br J Cancer 2001 Jan. 5, 84(1): 94-9; Umano Y et al., Br J Cancer 2001 Apr. 20, 84(8): 1052-7; Uchida N et al., Clin Cancer Res 2004 Dec. 15, 10(24): 8577-86; Suda T et al., Cancer Sci 2006 May, 97(5): 411-9; Watanabe T et al., Cancer Sci 2005 August, 96(8): 498-506).
as §1

[4] = system: COS7 cells transfected with ECT2 and HLA-A*0201; experiment: Specific CTL activity against target cells exogenously expressing ECT2 and HLA-A*0201; type: cell-based, African green monkey; conditions: for Specific CTL activity against COS7 cells transfected with both ECT2 and HLA-A*0201: CTL clone (SEQ ID NO: 1) or CTL line (SEQ ID NO: 21) as effector cells; for Specific CTL activity against control COS7 cells expressing either HLA-A*0201 or ECT2: controls transfected with only one gene
Source text: The cDNA encoding an open reading frame of target genes or HLA-A*0201 was amplified by PCR. The PCR-amplified product was cloned into a vector. The plasmids were transfected into COS7, which is the target genes and HLA-A*0201-null cell line, using lipofectamine 2000 (Invitrogen) according to the manufacturer's recommended procedures. After 2 days from transfection, the transfected cells were harvested with versene (Invitrogen) and used as the target cells (5×10^4 cells/well) for CTL activity assay.
The established CTL lines and clones raised against these peptides was examined for the ability to recognize target cells that exogenously express ECT2 and HLA-A*0201 molecule. […] COS7 cells transfected with either full length of ECT2 or HLA-A*0201 were prepared as the controls.

Substance | CTL inducibility / specific CTL activity of CTLs stimulated with the peptide [1] | IFN-gamma production of CTLs induced with the peptide (ELISPOT) [1] | IFN-gamma production of CTL clones stimulated with the peptide (ELISA) ([2]; listed as ECT2-A02-9-664) | IFN-gamma production of CTL lines stimulated with the peptide (ELISA) [3] | Specific CTL activity against COS7 cells transfected with both ECT2 and HLA-A*0201 ([4]; listed as ECT2-A02-9-34) | Specific CTL activity against control COS7 cells expressing either HLA-A*0201 or ECT2 [4] | IFN-gamma production of CTL clones stimulated with the peptide (ELISA) ([2]; listed as ECT2-A02-9-34) | Specific CTL activity against COS7 cells transfected with both ECT2 and HLA-A*0201 ([4]; listed as ECT2-A02-10-33)
1 (LLIGSTSYV) [compound 1] | strong CTL inducibility | – | – | – | – | – | – | –
3 (FLFNDCLEI) [compound 3] | strong CTL inducibility | – | – | – | – | – | – | –
21 (NLLIGSTSYV) [compound 21] | strong CTL inducibility | – | – | – | – | – | – | –
FLFNDCLEI [SEQ ID NO: 3] | significant and specific CTL activity | potent IFN-gamma production | potent IFN-gamma production | potent IFN-gamma production | – | – | – | –
LLIGSTSYV [SEQ ID NO: 1] | significant and specific CTL activity | potent IFN-gamma production | – | potent IFN-gamma production | potent CTL activity; also recorded: specific CTL activity | no significant specific CTL activity was detected | potent IFN-gamma production | –
NLLIgSTSYV (NLLIGSTSYV; not fully specified; printed as NLLIgSTSYV) [SEQ ID NO: 21] | significant and specific CTL activity | potent IFN-gamma production | – | potent IFN-gamma production | – | no significant specific CTL activity was detected | – | potent CTL activity; also recorded: specific CTL activity
